The results in this text go back to patent US20210113586A1, “NEW USE AND METHODS OF MODULATING IMMUNE RESPONSES” (DIAMYD MEDICAL AB, priority 2018, published 2021).

Common to all, as to format: cell-based, human
The subject of assay [1] is responder CD4+ T cells. As to the kind of experiment: Proliferation of anti-CD3 stimulated GABA responder CD4+ T cells from ND individuals. The note with it: for effect of agonist on proliferation: 100 nM, FIG. 3f. How it is done:
(§1) Peripheral Blood Mononuclear cells (PBMCs) are isolated from blood from donors diagnosed with Type-1 diabetes and healthy controls. Alternatively, CD4-positive cells (T-cells) are further isolated from PBMCs by e.g. MACS beads, FACS or similar technology. […] A reasonable replication, such as 3 cultures of each condition, is performed. A normalized proliferation value for each culture is then calculated by a standard proliferation measurement method, such as by CFSE staining or radioactive thymidine incorporation (requiring additional factors be added during culture) or by staining for proliferation markers.
(§2) In the FIG. 1, the proliferation of cells retrieved from 13 T1D subjects and 15 healthy controls were inspected. […] A normalized proliferation index was calculated for each culture.
(§3) The proliferation of freshly isolated human PBMCs or CD4^+ T cells was evaluated with MTT (3-(4,5-Dimethylthiazol-2-yl)-2,5-Diphenyltetrazolium Bromide) assay (Ring et al., 2012). Cells were suspended in complete medium (RPMI 1640 supplemented with 2 mM glutamine, 25 mM HEPES, 10% heat inactivated fetal bovine serum, 100 U/ml penicillin, 10 mg/ml streptomycin, 5 mM R-mercaptoethanol) in a concentration 1 million cells per milliliter. The assay was performed in 96-well plates in duplicates or triplicates, where each well was pre-coated with 3 μg/ml anti-CD3 antibody for 3-5 h at 37° C. Each well was loaded with 100,000 cells. Drugs were added to the wells at the relevant concentrations. The plate was incubated for 68 h at 37° C. (95% O2, 5% CO2) and then, a media-soluble tetrazolium dye MTT was added to a final concentration of 1 mM after which the plate was incubated for additional 4 h. The plate was then centrifuged at 2,000 RPM for 10 min to pellet the insoluble purple formazan crystals. The supernatant culture media was collected, stored at −80° C. and used for analysis of cytokines using the multiplex proximity extension assay (PEA). The formazan crystal pellet was dissolved in DMSO and the plate was read within 10 min using a Multiskan MS plate reader (Labsystems) at 550 nm. The optical density value was used as the proliferation index value. Drugs were purchased from Sigma-Aldrich or Tocris (Bristol, UK).

For assay [2], the system named is responder CD4+ T cells. Briefly: Multiplex PEA of cytokines released into culture medium by responder CD4+ T cells. Particulars: GABA plus 100 μM picrotoxin. How it is done: as §3
Plasma samples, and culture media samples that were collected from plate wells at the end of the proliferation assay, were analyzed by multiplex PEA with an Olink Inflammation […] panel, targeting 92 proteins related to inflammation (Olink Proteomics, Uppsala, Sweden) as previously described (Edvinsson et al., 2017, Assarsson et al., 2014, Larsson et al., 2015, Larssen et al., 2017). Briefly, 1 μl of sample (plasma samples or cell culture media samples) or negative control was mixed with 3 μl probe solution containing a set of 92 paires DNA-oligonucleotide-conjugated antibodies. Upon recognition of a target protein by a pair of probes, the DNA oligonucletodies on the antibodies are brought in proximity and hybridize to each other, followed by enzymatic DNA polymerization to form a new DNA molecule. The newly formed DNA molecule is then amplified and quantified using a microfluidic real-time qPCR, BioMark™ HD (Fluidigm, South San Francisco, Calif., USA). The generated quantification cycle (Cq) values are normalized against spiked-in controls to convert Cq values to Normalized Protein eXpression (NPX) value on log2 scale. NPX is an arbitrary unit, which is positively correlated to protein concentration. These NPX data were then converted to linear data, using the formula 2^NPX, prior to further statistical analysis. Limit of detection (LOD) for each protein was defined as three standard deviations above the background. Proteins with levels below LOD were excluded from further data analysis.

In assay [3] the test system is GABAA receptors. As to the kind of experiment: Patch-clamp single-channel current recording in CD4+ T cells. Particulars: picrotoxin 100 μM; FIG. 3i. How it is done:
GABA-activated currents were recorded by the patch-clamp technique as previously described (Bjurstom et al., 2008, Jin et al., 2011a). Extracellular recording solution contained (in mM): 145 NaCl, 3 KCl, 1 CsCl, 1 CaCl2, 1 MgCl2, 10 glucose and 10 TES; the pH was adjusted to 7.4 with NaOH. To record in the whole-cell configuration, the pipette solution contained (in mM): 136 CsCl, 20 KCl, 1 MgCl2, 3 MgATP and 10 TES; pH was adjusted to 7.3 with CsOH. The pipette solution for the cell-attached configuration contained (in mM): 69 NaCl, 5 KCl, 75 CsCl, 1 CaCl2, 1 MgCl2 and 10 TES; pH was adjusted to 7.4 with NaOH. […] The pipette potential (Vp) was −80 mV (hyperpolarizing) in the whole-cell configuration and −60 mV (depolarizing) in the cell-attached configuration.
(The patch-clamp technique gives a direct electrical read-out from membranes.)

The test system of assay [4] is PBMCs from T1D individuals. As to the kind of experiment: Proliferation of anti-CD3 stimulated PBMCs from T1D donors. Particulars: GABA plus picrotoxin. How it is done:
as §1, §2
as §3, with “The optical density value was used as the proliferation index value. Drugs were purchased from Sigma-Aldrich or Tocris (Bristol, UK).” left out

Where [5] appears, read: FIG. 5b-c legend, GABA concentration and cell group not given.

For the molecule `CCOC(OCC)P(=O)(O)CCCNCc1ccc(Cl)c(Cl)c1` [CGP52432], the “effect of antagonist on proliferation” value in assay [1] (50 μM, FIG. 3e) is on record as “ineffective”.
For `NC/C=C/C(=O)O` [TACA], in assay [1], the “effect of agonist on proliferation” value is reported as “inhibited the proliferation similar to GABA”.
The same measure, in the same setting: next, `NCC(CC(=O)O)c1ccc(Cl)cc1` (stereo not shown) [baclofen]: “ineffective”; `NCc1cc(=O)[nH]o1` [muscimol]: “inhibited the proliferation similar to GABA”.
Regarding picrotoxin [reference compound], in assay [2] (setting [5]), the “CCL19, 2^NPX normalized to controls, mean and SEM” value came to 1.72±0.74; the “CCL20, 2^NPX normalized to controls, mean and SEM” value came to 1.43±0.51; the “CXCL11, 2^NPX normalized to controls, mean and SEM” value turned out to be 1.55±0.51. Further, in assay [2] (FIG. 5b, c), the “effect on GABA inhibition of cytokine release” value is given as “reversed”. For the same molecule, the “effect on GABA-activated single-channel currents” value in assay [3] was “blocked”. In addition, the “effect on GABA-reduced proliferation” value in assay [4] (Example 1, FIG. 1D) is “reversed”. Moreover, in assay [4] (Example 2, FIG. 3b), the “effect on GABA inhibition of proliferation” value is “reversed”. Besides, in assay [1] (Example 1, FIG. 1B, GABA plus picrotoxin), the “effect on GABA-reduced proliferation” value is recorded as “reversed”. In assay [1] (picrotoxin, FIG. 3e), the “effect on 500 nM GABA-induced inhibition of proliferation” value is listed as “partially reversed”.
